PubChem BioAssay AID248 (DTP/NCI, 2004)
Several values for one entry are separate records, joined by “and”; a condition that tells them apart may be missing. Identical values can stand only once. Toxic doses and inconclusive results are not listed.

Test system: L1210 leukemia ip in BDF1 mice, survival T/C
Experiment: NCI In Vivo Anticancer Drug Screen. Data for tumor model L1210 Leukemia (intraperitoneal) in B6D2F1 (BDF1) mice
Conditions: endpoint: mean survival time, higher = longer survival
Summary of the method: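 In this screen, tumor-bearing mice given compound are compared to those given vehicle, and their survival values are reported as a treated-to-control quotient.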

[1] = dose: 100.0 mg/kg/injection, schedule: Q04DX003 (ip), vehicle: saline with Tween-80
[2] = dose: 100.0 mg/kg/injection, schedule: Q01DX001 (ip), vehicle: saline
[3] = dose: 200.0 mg/kg/injection, schedule: Q01DX001 (ip), vehicle: saline
[4] = dose: 400.0 mg/kg/injection, schedule: Q01DX001 (ip), vehicle: saline
[5] = dose: 100.0 mg/kg/injection, schedule: Q04DX003 (ip), vehicle: Klucel (hydroxypropylcellulose) (HPC)
[6] = dose: 200.0 mg/kg/injection, schedule: Q04DX003 (ip), vehicle: Klucel (hydroxypropylcellulose) (HPC)
[7] = dose: 10.0 mg/kg/injection, schedule: Q04DX003 (ip), vehicle: saline
[8] = dose: 20.0 mg/kg/injection, schedule: Q04DX003 (ip), vehicle: saline
[9] = dose: 25.0 mg/kg/injection, schedule: Q04DX002 (ip), vehicle: saline with Tween-80
[10] = dose: 50.0 mg/kg/injection, schedule: Q04DX002 (ip), vehicle: saline with Tween-80
[11] = dose: 100.0 mg/kg/injection, schedule: Q04DX002 (ip), vehicle: saline with Tween-80
[12] = dose: 400.0 mg/kg/injection, schedule: Q04DX003 (ip), vehicle: Klucel (hydroxypropylcellulose) (HPC)
[13] = dose: 100.0 mg/kg/injection, schedule: Q01DX009 (ip), vehicle: Klucel (hydroxypropylcellulose) (HPC)
[14] = dose: 200.0 mg/kg/injection, schedule: Q01DX009 (ip), vehicle: Klucel (hydroxypropylcellulose) (HPC)
[15] = dose: 400.0 mg/kg/injection, schedule: Q01DX009 (ip), vehicle: Klucel (hydroxypropylcellulose) (HPC)

## NNc1cccc(C(F)(F)F)c1
dose: 25.0 mg/kg/injection, schedule: Q01DX009 (ip), vehicle: saline with Tween-80
  T/C: 94 % of control
dose: 25.0 mg/kg/injection, schedule: Q04DX003 (ip), vehicle: saline with Tween-80
  T/C: 100 % of control
dose: 50.0 mg/kg/injection, schedule: Q01DX009 (ip), vehicle: saline with Tween-80
  T/C: 96 % of control
dose: 50.0 mg/kg/injection, schedule: Q04DX003 (ip), vehicle: saline with Tween-80
  T/C: 95 % of control
[1]
  T/C: 95 % of control and 98 % of control

## N=C(N)C1CCCCC1
[2]
  T/C: 95 % of control
[3]
  T/C: 97 % of control
[4]
  T/C: 100 % of control

## CNc1nc(Cl)ncc1C
dose: 0.2 mg/kg/injection, schedule: Q01DX Z (ip), vehicle: methylcellulose (MC)
  T/C: 90 % of control
dose: 0.5 mg/kg/injection, schedule: Q01DX Z (ip), vehicle: methylcellulose (MC)
  T/C: 89 % of control

## Nc1cc(S(=O)O)c2cccnc2c1O
dose: 75.0 mg/kg/injection, schedule: Q01DX009 (ip), vehicle: Klucel (hydroxypropylcellulose) (HPC)
  T/C: 88 % of control
[5]
  T/C: 97 % of control
dose: 150.0 mg/kg/injection, schedule: Q01DX009 (ip), vehicle: Klucel (hydroxypropylcellulose) (HPC)
  T/C: 108 % of control
[6]
  T/C: 95 % of control
dose: 300.0 mg/kg/injection, schedule: Q01DX009 (ip), vehicle: Klucel (hydroxypropylcellulose) (HPC)
  T/C: 93 % of control

## O=C(CCl)c1cnc2ccccc2n1
dose: 5.0 mg/kg/injection, schedule: Q01DX009 (ip), vehicle: saline
  T/C: 102 % of control
dose: 5.0 mg/kg/injection, schedule: Q04DX003 (ip), vehicle: saline
  T/C: 103 % of control
dose: 10.0 mg/kg/injection, schedule: Q01DX009 (ip), vehicle: saline
  T/C: 98 % of control
[7]
  T/C: 100 % of control
dose: 20.0 mg/kg/injection, schedule: Q01DX009 (ip), vehicle: saline
  T/C: 93 % of control
[8]
  T/C: 100 % of control

## CNC(=O)NC1CCCCC1
dose: 100.0 mg/kg/injection, schedule: Q01DX001 (ip), vehicle: carboxymethylcellulose (CMC)
  T/C: 106 % of control
dose: 100.0 mg/kg/injection, schedule: Q01DX009 (ip), vehicle: carboxymethylcellulose (CMC)
  T/C: 92 % of control and 98 % of control
dose: 100.0 mg/kg/injection, schedule: Q04DX002 (ip), vehicle: carboxymethylcellulose (CMC)
  T/C: 97 % of control
dose: 100.0 mg/kg/injection, schedule: Q04DX003 (ip), vehicle: carboxymethylcellulose (CMC)
  T/C: 100 % of control
dose: 200.0 mg/kg/injection, schedule: Q01DX001 (ip), vehicle: carboxymethylcellulose (CMC)
  T/C: 103 % of control
dose: 200.0 mg/kg/injection, schedule: Q01DX009 (ip), vehicle: carboxymethylcellulose (CMC)
  T/C: 95 % of control and 96 % of control
dose: 200.0 mg/kg/injection, schedule: Q04DX002 (ip), vehicle: carboxymethylcellulose (CMC)
  T/C: 89 % of control
dose: 200.0 mg/kg/injection, schedule: Q04DX003 (ip), vehicle: carboxymethylcellulose (CMC)
  T/C: 97 % of control
dose: 400.0 mg/kg/injection, schedule: Q01DX001 (ip), vehicle: carboxymethylcellulose (CMC)
  T/C: 106 % of control
dose: 400.0 mg/kg/injection, schedule: Q01DX009 (ip), vehicle: carboxymethylcellulose (CMC)
  T/C: 101 % of control
dose: 400.0 mg/kg/injection, schedule: Q04DX002 (ip), vehicle: carboxymethylcellulose (CMC)
  T/C: 100 % of control
dose: 400.0 mg/kg/injection, schedule: Q04DX003 (ip), vehicle: carboxymethylcellulose (CMC)
  T/C: 100 % of control

## CCc1cc2c(cc1C(=O)CCN1CCCC1)C(C)(C)CCC2(C)C
[9]
  T/C: 90 % of control
[10]
  T/C: 90 % of control
[11]
  T/C: 90 % of control

## CC(C)CCCCCc1ccc(OCCOc2ccc(C(=O)Nc3ccc(S(=O)(=O)F)cc3N)cc2)cc1
dose: 100.0 mg/kg/injection, schedule: Q01DX009 (ip), vehicle: saline sonified
  T/C: 107 % of control
[5]
  T/C: 98 % of control
dose: 200.0 mg/kg/injection, schedule: Q01DX009 (ip), vehicle: saline sonified
  T/C: 100 % of control
[6]
  T/C: 96 % of control
dose: 400.0 mg/kg/injection, schedule: Q01DX009 (ip), vehicle: saline sonified
  T/C: 98 % of control
[12]
  T/C: 94 % of control

## CCOC(=O)NOP(=O)(N1CC1)N1CC1
dose: 100.0 mg/kg/injection, schedule: Q04DX002 (ip), vehicle: saline
  T/C: 153 % of control

## CC(=O)Nc1ccc(CCCCc2cccc(C(=N)N)c2)cc1
dose: 12.5 mg/kg/injection, schedule: Q01DX009 (ip), vehicle: saline
  T/C: 101 % of control
dose: 12.5 mg/kg/injection, schedule: Q04DX003 (ip), vehicle: Klucel (hydroxypropylcellulose) (HPC)
  T/C: 102 % of control
dose: 25.0 mg/kg/injection, schedule: Q01DX009 (ip), vehicle: saline
  T/C: 101 % of control
dose: 25.0 mg/kg/injection, schedule: Q04DX003 (ip), vehicle: Klucel (hydroxypropylcellulose) (HPC)
  T/C: 100 % of control
dose: 50.0 mg/kg/injection, schedule: Q01DX009 (ip), vehicle: saline
  T/C: 95 % of control
dose: 50.0 mg/kg/injection, schedule: Q04DX003 (ip), vehicle: Klucel (hydroxypropylcellulose) (HPC)
  T/C: 102 % of control

## CCOC(=O)c1ccc(NC(=O)/C=C/C(=O)O)cc1
[13]
  T/C: 100 % of control
[14]
  T/C: 95 % of control
[15]
  T/C: 98 % of control

## CC(C)(C)c1ccc(OC(=O)NCCCCCCNC(=O)Oc2ccc(C(C)(C)C)cc2)cc1
dose: 100.0 mg/kg/injection, schedule: Q01DX009 (ip), vehicle: other
  T/C: 96 % of control
dose: 200.0 mg/kg/injection, schedule: Q01DX009 (ip), vehicle: other
  T/C: 91 % of control
dose: 400.0 mg/kg/injection, schedule: Q01DX009 (ip), vehicle: other
  T/C: 87 % of control

## CC(=O)Oc1cc(-c2c(C)cc(C)cc2C)c(OC(C)=O)cc1C
[13]
  T/C: 104 % of control
[5]
  T/C: 94 % of control
[14]
  T/C: 97 % of control
[6]
  T/C: 90 % of control
[15]
  T/C: 97 % of control
[12]
  T/C: 95 % of control

## Cc1nnc(Cl)c2ccccc12
[2]
  T/C: 95 % of control

## Cc1cc(=O)oc2cc(OCc3ccccc3)cc(O)c12
dose: 75.0 mg/kg/injection, schedule: Q01DX001 (ip), vehicle: other
  T/C: 103 % of control
dose: 150.0 mg/kg/injection, schedule: Q01DX001 (ip), vehicle: other
  T/C: 108 % of control
dose: 300.0 mg/kg/injection, schedule: Q01DX001 (ip), vehicle: other
  T/C: 108 % of control

## COc1ccc(NC(=O)COc2ccc(Cl)cc2)cc1
[13]
  T/C: 93 % of control
[5]
  T/C: 100 % of control
[14]
  T/C: 90 % of control
[6]
  T/C: 106 % of control
[15]
  T/C: 92 % of control
[12]
  T/C: 93 % of control

## CC(=O)OC1CCC2(C)C3=CCC4(C)C(C(C)/C=C\C(C)C(C)C)CCC4C34C=CC2(C1)C1C(=O)OC(=O)C14 (stereo not given)
[9]
  T/C: 98 % of control
[10]
  T/C: 90 % of control
[11]
  T/C: 94 % of control

## Cc1ccc(S(=O)(=O)N2CCc3ccccc3C(=O)C2)cc1
[2]
  T/C: 97 % of control
[3]
  T/C: 94 % of control
[4]
  T/C: 94 % of control

## Clc1ccc(OCCOc2ccc(Cl)cc2)cc1
[1]
  T/C: 95 % of control
dose: 200.0 mg/kg/injection, schedule: Q04DX003 (ip), vehicle: saline with Tween-80
  T/C: 92 % of control
dose: 400.0 mg/kg/injection, schedule: Q04DX003 (ip), vehicle: saline with Tween-80
  T/C: 106 % of control

## OCC(O)C(O)C(O)C1SCCS1 (stereo not given)
[2]
  T/C: 103 % of control
[3]
  T/C: 106 % of control
[4]
  T/C: 104 % of control

## NC(=S)NNC(=O)c1ccncc1
[2]
  T/C: 96 % of control
[3]
  T/C: 96 % of control
[4]
  T/C: 91 % of control

## COc1cc(C2=N/C(=C\C=C\c3ccccc3)C(=O)O2)cc(OC)c1OC
[11]
  T/C: 95 % of control
dose: 200.0 mg/kg/injection, schedule: Q04DX002 (ip), vehicle: saline with Tween-80
  T/C: 95 % of control
dose: 400.0 mg/kg/injection, schedule: Q04DX002 (ip), vehicle: saline with Tween-80
  T/C: 95 % of control

## CC1(C(=O)c2ccccc2)CN(C(C)(C)C)C1c1ccccc1 (stereo not given)
dose: 50.0 mg/kg/injection, schedule: Q01DX001 (ip), vehicle: Klucel (hydroxypropylcellulose) (HPC)
  T/C: 97 % of control
dose: 100.0 mg/kg/injection, schedule: Q01DX001 (ip), vehicle: Klucel (hydroxypropylcellulose) (HPC)
  T/C: 95 % of control
dose: 200.0 mg/kg/injection, schedule: Q01DX001 (ip), vehicle: Klucel (hydroxypropylcellulose) (HPC)
  T/C: 94 % of control

## CC(C)(C)C#CC#CC(C)(C)C
[7]
  T/C: 95 % of control
[8]
  T/C: 100 % of control
dose: 40.0 mg/kg/injection, schedule: Q04DX003 (ip), vehicle: saline
  T/C: 92 % of control
